Paper PMC10046369, “Low-Affinity/High-Selectivity Dopamine Transport Inhibition Sufficient to Rescue Cognitive Functions in the Aging Rat” (Biomolecules, 2023)

Key:
Assay in all cases: biochemical
Design in all cases: KINOMEscan competition binding panel, per cent of control
Conditions in all cases: read-out: %Ctrl @ 2800nM
PKN1 = PKN1 (Homo sapiens, UniProt Q16512)
In short: (§1)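 Values are expressed as percent of control, calculated as ((test − positive control)/(negative control − positive control)) × 100, so lower numbers mean stronger hits. Binding was measured by KINOMEscan competition assay in a 450-kinase human panel including disease mutants, using the contractor's validated protocol.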

FGFR1 = FGFR1 (Homo sapiens, UniProt P11362)
Sequence of FGFR1 (P11362 whole entry): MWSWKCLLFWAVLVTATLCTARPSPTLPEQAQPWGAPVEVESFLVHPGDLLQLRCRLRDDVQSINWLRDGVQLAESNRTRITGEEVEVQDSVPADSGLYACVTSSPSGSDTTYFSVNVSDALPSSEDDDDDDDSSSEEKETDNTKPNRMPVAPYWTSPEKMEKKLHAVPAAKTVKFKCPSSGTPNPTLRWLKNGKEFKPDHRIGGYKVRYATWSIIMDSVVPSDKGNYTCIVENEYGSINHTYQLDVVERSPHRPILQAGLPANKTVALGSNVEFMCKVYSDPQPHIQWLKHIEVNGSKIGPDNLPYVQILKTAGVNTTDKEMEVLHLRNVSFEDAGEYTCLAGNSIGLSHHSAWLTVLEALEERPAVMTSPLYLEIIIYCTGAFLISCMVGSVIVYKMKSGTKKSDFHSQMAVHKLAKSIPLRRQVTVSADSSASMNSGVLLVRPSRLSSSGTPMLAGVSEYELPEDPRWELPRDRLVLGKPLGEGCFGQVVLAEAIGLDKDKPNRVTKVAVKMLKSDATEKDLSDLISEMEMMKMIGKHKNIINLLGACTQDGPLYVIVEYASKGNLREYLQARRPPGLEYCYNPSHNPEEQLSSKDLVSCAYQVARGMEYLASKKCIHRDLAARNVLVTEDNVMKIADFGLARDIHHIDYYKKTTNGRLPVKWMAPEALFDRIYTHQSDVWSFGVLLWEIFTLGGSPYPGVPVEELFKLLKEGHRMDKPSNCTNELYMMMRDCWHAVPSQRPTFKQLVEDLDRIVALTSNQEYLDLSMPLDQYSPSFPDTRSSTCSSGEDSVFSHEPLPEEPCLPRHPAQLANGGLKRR
In short: as §1

SRPK1 = SRPK1 (Homo sapiens, UniProt Q96SB4)
In short: as §1

[1] = biological target: T1, RSK1(Kin.Dom.1-N-terminal) (Homo sapiens, UniProt Q15418)
T1 construct: gene RPS6KA1; Kin.Dom.1-N-terminal
In short: as §1

PAK4 = PAK4 (Homo sapiens, UniProt O96013)
In short: as §1

RIPK1 = RIPK1 (Homo sapiens, UniProt Q13546)
In short: as §1

TNIK = TNIK (Homo sapiens, UniProt Q9UKE5)
In short: as §1

FLT3(D835Y) = FLT3(D835Y) (Homo sapiens, UniProt P36888, D835Y)
In short: as §1

LATS2 = LATS2 (Homo sapiens, UniProt Q9NRM7)
In short: as §1

IGF1R = IGF1R (Homo sapiens, UniProt P08069)
In short: as §1

TAOK1 = TAOK1 (Homo sapiens, UniProt Q7L7X3)
In short: as §1

PRKCQ = PRKCQ (Homo sapiens, UniProt Q04759)
In short: as §1

CSF1R-autoinhibited = CSF1R-autoinhibited (Homo sapiens, UniProt P07333)
In short: as §1

SGK3 = SGK3 (Homo sapiens, UniProt Q96BR1)
In short: as §1

EGFR(T790M) = EGFR(T790M) (Homo sapiens, UniProt P00533, T790M)
Sequence of EGFR(T790M) (P00533 whole entry T790M): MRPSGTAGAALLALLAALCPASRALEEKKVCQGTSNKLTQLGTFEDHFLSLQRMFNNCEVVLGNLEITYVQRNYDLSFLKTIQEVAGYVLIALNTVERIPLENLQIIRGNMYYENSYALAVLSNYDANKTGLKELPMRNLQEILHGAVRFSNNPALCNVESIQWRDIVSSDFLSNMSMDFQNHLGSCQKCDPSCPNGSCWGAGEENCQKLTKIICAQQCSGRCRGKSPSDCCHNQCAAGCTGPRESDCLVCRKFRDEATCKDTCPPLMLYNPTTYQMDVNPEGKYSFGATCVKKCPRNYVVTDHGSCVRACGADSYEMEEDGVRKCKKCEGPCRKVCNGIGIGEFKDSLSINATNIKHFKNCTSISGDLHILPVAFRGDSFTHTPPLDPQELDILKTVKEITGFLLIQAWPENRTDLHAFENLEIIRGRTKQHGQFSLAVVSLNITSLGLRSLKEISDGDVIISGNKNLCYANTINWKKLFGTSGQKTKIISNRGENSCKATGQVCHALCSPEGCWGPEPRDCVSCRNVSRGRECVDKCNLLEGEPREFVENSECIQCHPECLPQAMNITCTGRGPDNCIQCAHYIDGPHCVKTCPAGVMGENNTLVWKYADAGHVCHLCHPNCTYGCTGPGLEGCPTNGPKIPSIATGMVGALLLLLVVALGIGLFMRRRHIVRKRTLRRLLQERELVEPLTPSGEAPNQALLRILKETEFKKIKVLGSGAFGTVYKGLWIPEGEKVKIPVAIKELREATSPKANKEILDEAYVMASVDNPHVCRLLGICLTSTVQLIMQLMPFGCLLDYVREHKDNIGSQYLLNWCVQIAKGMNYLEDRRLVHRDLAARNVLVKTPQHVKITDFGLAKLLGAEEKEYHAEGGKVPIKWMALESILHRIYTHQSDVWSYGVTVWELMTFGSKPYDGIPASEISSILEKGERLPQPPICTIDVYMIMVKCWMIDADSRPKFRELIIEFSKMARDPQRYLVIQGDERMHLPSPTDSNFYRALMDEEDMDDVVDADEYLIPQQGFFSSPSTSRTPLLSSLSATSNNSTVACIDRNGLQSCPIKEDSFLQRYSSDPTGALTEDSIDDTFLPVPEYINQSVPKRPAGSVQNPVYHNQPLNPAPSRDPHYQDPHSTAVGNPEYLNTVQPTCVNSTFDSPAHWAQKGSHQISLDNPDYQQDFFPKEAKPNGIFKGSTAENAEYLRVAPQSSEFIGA
In short: as §1

GRK3 = GRK3 (Homo sapiens, UniProt P35626)
In short: as §1

MEK2 = biological target: T2, MEK2 (Homo sapiens, UniProt P36507)
T2 construct: gene MAP2K2
In short: as §1

FGFR3 = FGFR3 (Homo sapiens, UniProt P22607)
In short: as §1

SGK = biological target: T3, SGK (Homo sapiens, UniProt O00141)
T3 construct: gene SGK1
T3 sequence (O00141 whole entry): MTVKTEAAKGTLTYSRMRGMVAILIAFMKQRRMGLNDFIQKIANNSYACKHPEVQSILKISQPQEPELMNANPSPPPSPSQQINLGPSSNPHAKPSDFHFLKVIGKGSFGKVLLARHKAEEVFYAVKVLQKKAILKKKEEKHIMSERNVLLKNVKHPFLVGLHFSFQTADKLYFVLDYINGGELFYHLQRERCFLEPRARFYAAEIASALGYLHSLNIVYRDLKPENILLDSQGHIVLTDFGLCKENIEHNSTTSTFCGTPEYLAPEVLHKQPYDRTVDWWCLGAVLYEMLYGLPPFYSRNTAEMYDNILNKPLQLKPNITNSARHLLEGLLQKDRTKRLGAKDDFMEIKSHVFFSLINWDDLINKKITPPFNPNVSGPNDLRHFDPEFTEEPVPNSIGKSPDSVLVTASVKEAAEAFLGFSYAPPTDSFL
In short: as §1

CLK3 = CLK3 (Homo sapiens, UniProt P49761)
In short: as §1

AURKA = AURKA (Homo sapiens, UniProt O14965)
In short: as §1

ALK = ALK (Homo sapiens, UniProt Q9UM73)
Sequence of ALK (Q9UM73 whole entry): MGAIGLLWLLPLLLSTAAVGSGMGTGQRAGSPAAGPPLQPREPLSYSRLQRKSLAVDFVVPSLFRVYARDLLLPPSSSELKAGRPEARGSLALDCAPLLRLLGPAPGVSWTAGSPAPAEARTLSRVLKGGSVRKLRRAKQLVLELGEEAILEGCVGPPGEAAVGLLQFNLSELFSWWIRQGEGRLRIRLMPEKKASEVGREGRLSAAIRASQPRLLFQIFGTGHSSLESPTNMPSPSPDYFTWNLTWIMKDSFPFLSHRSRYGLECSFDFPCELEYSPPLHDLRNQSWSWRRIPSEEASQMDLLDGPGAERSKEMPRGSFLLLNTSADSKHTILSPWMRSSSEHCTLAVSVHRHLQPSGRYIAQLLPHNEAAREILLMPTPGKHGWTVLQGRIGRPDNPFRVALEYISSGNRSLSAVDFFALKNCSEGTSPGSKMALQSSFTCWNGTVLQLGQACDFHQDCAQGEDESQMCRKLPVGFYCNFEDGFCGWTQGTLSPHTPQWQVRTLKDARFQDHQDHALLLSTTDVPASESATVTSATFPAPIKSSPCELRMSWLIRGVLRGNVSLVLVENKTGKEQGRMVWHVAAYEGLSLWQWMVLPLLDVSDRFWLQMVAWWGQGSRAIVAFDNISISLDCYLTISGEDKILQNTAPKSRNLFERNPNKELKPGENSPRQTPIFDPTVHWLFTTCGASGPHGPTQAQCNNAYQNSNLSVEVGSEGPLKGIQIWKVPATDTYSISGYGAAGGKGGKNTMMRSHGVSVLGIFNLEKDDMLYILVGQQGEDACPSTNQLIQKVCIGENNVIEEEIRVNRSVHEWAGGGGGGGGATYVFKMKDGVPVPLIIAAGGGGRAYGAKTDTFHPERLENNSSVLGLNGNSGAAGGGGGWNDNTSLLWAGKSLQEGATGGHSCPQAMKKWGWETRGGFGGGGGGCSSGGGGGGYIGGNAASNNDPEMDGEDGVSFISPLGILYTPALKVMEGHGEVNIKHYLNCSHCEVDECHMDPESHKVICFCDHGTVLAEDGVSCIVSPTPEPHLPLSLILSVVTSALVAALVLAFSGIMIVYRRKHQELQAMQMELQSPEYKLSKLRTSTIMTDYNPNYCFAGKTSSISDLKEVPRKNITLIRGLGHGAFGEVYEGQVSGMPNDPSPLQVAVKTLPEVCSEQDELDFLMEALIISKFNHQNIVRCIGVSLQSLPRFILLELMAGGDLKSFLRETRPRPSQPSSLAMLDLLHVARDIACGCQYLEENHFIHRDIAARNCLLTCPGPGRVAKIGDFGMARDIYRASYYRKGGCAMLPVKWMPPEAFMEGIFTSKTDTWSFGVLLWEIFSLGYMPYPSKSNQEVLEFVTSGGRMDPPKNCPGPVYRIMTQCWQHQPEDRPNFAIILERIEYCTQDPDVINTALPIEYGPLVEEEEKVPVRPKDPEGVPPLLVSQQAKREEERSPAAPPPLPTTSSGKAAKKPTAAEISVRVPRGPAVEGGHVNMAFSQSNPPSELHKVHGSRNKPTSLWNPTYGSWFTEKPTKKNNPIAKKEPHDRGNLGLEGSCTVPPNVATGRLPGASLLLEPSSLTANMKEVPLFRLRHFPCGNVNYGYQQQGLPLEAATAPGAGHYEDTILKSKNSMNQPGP
In short: as §1

TRKA = biological target: T4, TRKA (Homo sapiens, UniProt P04629)
T4 construct: gene NTRK1
In short: as §1

EGFR(L858R,T790M) = EGFR(L858R,T790M) (Homo sapiens, UniProt P00533, L858R/T790M)
In short: as §1

PRKD1 = PRKD1 (Homo sapiens, UniProt Q15139)
Sequence of PRKD1 (Q15139 whole entry): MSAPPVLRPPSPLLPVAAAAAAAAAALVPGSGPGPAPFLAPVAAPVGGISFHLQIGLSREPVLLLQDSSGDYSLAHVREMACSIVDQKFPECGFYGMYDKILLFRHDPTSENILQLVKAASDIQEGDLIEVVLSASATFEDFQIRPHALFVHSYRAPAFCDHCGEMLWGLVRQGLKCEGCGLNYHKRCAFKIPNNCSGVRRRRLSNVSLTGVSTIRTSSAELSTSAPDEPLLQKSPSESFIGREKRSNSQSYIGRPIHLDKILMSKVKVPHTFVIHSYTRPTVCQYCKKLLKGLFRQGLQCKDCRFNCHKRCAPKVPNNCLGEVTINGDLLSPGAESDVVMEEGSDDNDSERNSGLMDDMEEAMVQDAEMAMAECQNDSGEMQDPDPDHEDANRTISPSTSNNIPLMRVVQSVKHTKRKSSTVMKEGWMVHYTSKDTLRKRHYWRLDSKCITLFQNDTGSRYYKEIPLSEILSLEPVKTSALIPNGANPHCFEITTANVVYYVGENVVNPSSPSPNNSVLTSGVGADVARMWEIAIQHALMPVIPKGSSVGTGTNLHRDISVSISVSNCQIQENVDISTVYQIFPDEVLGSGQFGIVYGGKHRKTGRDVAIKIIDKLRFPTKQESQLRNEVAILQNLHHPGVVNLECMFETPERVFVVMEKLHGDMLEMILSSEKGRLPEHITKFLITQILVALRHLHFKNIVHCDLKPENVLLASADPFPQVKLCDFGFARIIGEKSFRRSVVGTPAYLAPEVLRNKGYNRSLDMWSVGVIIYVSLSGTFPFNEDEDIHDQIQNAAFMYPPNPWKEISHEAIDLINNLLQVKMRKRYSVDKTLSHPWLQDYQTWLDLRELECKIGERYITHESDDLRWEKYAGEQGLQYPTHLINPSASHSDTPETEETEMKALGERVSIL
In short: as §1

EGFR(E746-A750del) = EGFR(E746-A750del) (Homo sapiens, UniProt P00533, DEL746-750)
In short: as §1

[O-][S@@+](Cc1cncs1)C(c1ccccc1)c1ccccc1 [S-CE-123, (S)-5-((Benzhydrylsulfinyl)Methyl)Thiazole] gave a remaining binding at 2.8 µM (PKN1) of 100%, a remaining binding at 2.8 µM (FGFR1) of 100% and a remaining binding at 2.8 µM (SRPK1) of 92%. The remaining binding at 2.8 µM [1] was 80%, the remaining binding at 2.8 µM (PAK4) was 98% and the remaining binding at 2.8 µM (RIPK1) was 80%. It also gave a remaining binding at 2.8 µM (TNIK) of 89%, a remaining binding at 2.8 µM (FLT3(D835Y)) of 99% and a remaining binding at 2.8 µM (LATS2) of 100%. For the same compound, the remaining binding at 2.8 µM (IGF1R) was 94%, the remaining binding at 2.8 µM (TAOK1) was 100% and the remaining binding at 2.8 µM (PRKCQ) was 100%. The remaining binding at 2.8 µM (CSF1R-autoinhibited) was 100%, the remaining binding at 2.8 µM (SGK3) was 100% and the remaining binding at 2.8 µM (EGFR(T790M)) was 98%. It also gave a remaining binding at 2.8 µM (GRK3) of 100%, a remaining binding at 2.8 µM (MEK2) of 93% and a remaining binding at 2.8 µM (FGFR3) of 91%. The remaining binding at 2.8 µM (SGK) was 94%, the remaining binding at 2.8 µM (CLK3) was 95% and the remaining binding at 2.8 µM (AURKA) was 91%. It also gave a remaining binding at 2.8 µM (ALK) of 100%, a remaining binding at 2.8 µM (TRKA) of 100% and a remaining binding at 2.8 µM (EGFR(L858R,T790M)) of 99%. It also gave a remaining binding at 2.8 µM (PRKD1) of 92% and a remaining binding at 2.8 µM (EGFR(E746-A750del)) of 93%.
